The source of these data is US20150344444A1, “BET-PROTEIN-INHIBITING DIHYDROXYQUINOXALINONES” (BAYER PHARMA AKTIENGESELLSCHAFT, priority 2012, published 2015).

This assay has as its target T1, BRD4 Bromo Domain 1 [BRD4(1)] (Homo sapiens, UniProt O60885).
T1 construct: N-terminally His6-tagged BRD4(1) (amino acids 67-152); made in house; host or cells: E. coli
In words: BRD4(1)/acetylated peptide H4 binding assay (TR-FRET). To be noted: inhibition of interaction between His6-tagged BRD4(1) (amino acids 67-152) and acetylated histone H4 peptide. From the text: Protein-Protein Interaction Assay: BRD4/Acetylated Peptide H4 Binding Assay
1. Assay Description for BRD4 Bromo Domain 1 [BRD4(1)]
To assess the BRD4(1) binding strength of the substances described in this application, the ability thereof to inhibit the interaction between BRD4(1) and acetylated histone H4 in a dose-dependent manner was quantified.
For this purpose, a time-resolved fluorescence resonance energy transfer (TR-FRET) assay was used, which measures the binding between N-terminally His6-tagged BRD4(1) (amino acids 67-152) and a synthetic acetylated histone H4 (Ac-H4) peptide with sequence GRGK(Ac)GGK(Ac)GLGK(Ac)GGAK(Ac)RHGSGSK-biotin. The recombinant BRD4(1) protein produced in house according to Filippakopoulos et al., Cell, 2012, 149:214-231 was expressed in E. coli and purified by means of (Ni-NTA) affinity and (Sephadex G-75) size exclusion chromatography. The Ac-H4 peptide can be purchased, for example, from Biosyntan (Berlin, Germany).
In the assay, typically 11 different concentrations of each substance (0.1 nM, 0.33 nM, 1.1 nM, 3.8 nM, 13 nM, 44 nM, 0.15 μM, 0.51 μM, 1.7 μM, 5.9 μM and 20 μM) were analysed as duplicates on the same microtitre plate. For this purpose, 100-fold concentrated solutions in DMSO were prepared by serial dilutions (1:3.4) of a 2 mM stock solution into a clear, 384-well microtitre plate (Greiner Bio-One, Frickenhausen, Germany). From this, 50 nl were transferred into a black test plate (Greiner Bio-One, Frickenhausen, Germany). The test was started by the addition of 2 μl of a 2.5-fold concentrated BRD4(1) solution (final concentration typically 10 nM in the 5 μl of reaction volume) in aqueous assay buffer [50 mM HEPES pH 7.5, 50 mM sodium chloride (NaCl), 0.25 mM CHAPS and 0.05% serum albumin (BSA)] to the substances in the test plate. This was followed by a 10-minute incubation step at 22° C. for the pre-equilibration of putative complexes between BRD4(1) and the substances.
The mixture was then incubated in the dark at 22° C. for one hour and then at 4° C. for at least 3 hours and for no longer than overnight. The formation of BRD4(1)/Ac-H4 complexes was determined by the measurement of the resonance energy transfer from the streptavidin-Eu cryptate to the anti-6His-XL665 antibody present in the reaction. For this purpose, the fluorescence emission was measured at 620 nm and 665 nm after excitation at 330-350 nm in a TR-FRET measuring instrument, for example a Rubystar or Pherastar (both from BMG Lab Technologies, Offenburg, Germany) or a Viewlux (Perkin-Elmer). The ratio of the emissions at 665 nm and at 622 nm was taken as an indicator of the amount of BRD4(1)/Ac-H4 complexes formed.
The data (ratios) obtained were normalized, with 0% inhibition corresponding to the mean from the measurements for a set of controls (typically 32 data points) in which all the reagents were present. In these, in place of test substances, 50 nl of DMSO (100%) were used Inhibition of 100% corresponded to the mean from the measurements for a set of controls (typically 32 data points) in which all the reagents except BRD4(1) were present. The IC50 was determined by regression analysis based on a 4-parameter equation (minimum, maximum, IC50, Hill; Y=max+(min−max)/(1+(X/IC50)Hill).
Background: Time-resolved FRET reads energy transfer from a long-lived donor to a nearby acceptor.
Broadly, the IC50 is the concentration that inhibits the measured activity by half. A low value points to greater potency in that assay. On to `C[C@@H]1C(=O)N(C)c2ccc(Nc3ccc(C(=O)NC4CCN(C)CC4)cc3)cc2N1Cc1c(F)cccc1F` (stereo in doubt) [Example 39, 4-{[4-(2,6-difluorobenzyl)-1,3-dimethyl-2-oxo-1,2,3,4-tetrahydroquinoxalin-6-yl]amino}-N-(1-methylpiperidin-4-yl)benzamide], for which the IC50 was found to be 1040 nM.

Regarding `C[C@@H]1C(=O)N(C)c2ccc(Nc3ccc(C(=O)NC4CCC(N5CCN(CC6CC6)CC5)CC4)cc3)cc2N1Cc1c(F)cccc1F` (stereo in doubt) [Example 40, N-{4-[4-(cyclopropylmethyl)piperazin-1-yl]cyclohexyl}-4-{[4-(2,6-difluorobenzyl)-1,3-dimethyl-2-oxo-1,2,3,4-tetrahydroquinoxalin-6-yl]amino}benzamide], the IC50 is 1280 nM.

Turning to `C[C@@H]1C(=O)N(C)c2ccc(Nc3ccc(C(=O)NC4CCCC4)cc3)cc2N1C1CCCC1` [Example 1, N-cyclopentyl-4-{[(3R)-4-cyclopentyl-1,3-dimethyl-2-oxo-1,2,3,4-tetrahydroquinoxalin-6-yl]amino}benzamide], the half-inhibitory concentration (IC50) stood at 173 nM.

With `C[C@@H]1C(=O)N(C)c2ccc(Nc3ccc(C(=O)NC4CC4)cc3)cc2N1C1CCCC1` [Example 2, 4-{[(3R)-4-cyclopentyl-1,3-dimethyl-2-oxo-1,2,3,4-tetrahydroquinoxalin-6-yl]amino}-N-cyclopropylbenzamide], the 50% inhibitory concentration (IC50) is 144 nM.

With `C[C@@H]1C(=O)N(C)c2ccc(Nc3ccc(S(=O)(=O)N(C)C)cc3)cc2N1C1CCCC1` [Example 3, 4-{[(3R)-4-cyclopentyl-1,3-dimethyl-2-oxo-1,2,3,4-tetrahydroquinoxalin-6-yl]amino}-N,N-dimethylbenzenesulphonamide], the IC50 was 63 nM.

`C[C@@H]1C(=O)N(C)c2ccc(Nc3ccc(C(=O)N4CCOCC4)cc3)cc2N1C1CCCC1` [Example 6, (3R)-4-cyclopentyl-1,3-dimethyl-6-{[4-(morpholin-4-ylcarbonyl)phenyl]amino}-3,4-dihydroquinoxalin-2(1H)-one]: the IC50 was 74 nM.

`CC(C)NC(=O)c1ccc(Nc2ccc3c(c2)N(C2CCCC2)[C@H](C)C(=O)N3C)cc1` [Example 7, 4-{[(3R)-4-cyclopentyl-1,3-dimethyl-2-oxo-1,2,3,4-tetrahydroquinoxalin-6-yl]amino}-N-isopropylbenzamide] displayed an IC50 of 167 nM.

As to `C[C@@H]1C(=O)N(C)c2ccc(Nc3ccc(C(=O)N(C)C)cc3)cc2N1C1CCCC1` [Example 8, 4-{[(3R)-4-cyclopentyl-1,3-dimethyl-2-oxo-1,2,3,4-tetrahydroquinoxalin-6-yl]amino}-N,N-dimethylbenzamide], the IC50 is 98 nM.

Regarding `C[C@@H]1C(=O)N(C)c2ccc(Nc3ccc(C(=O)NCC4COC4)cc3)cc2N1Cc1ccccc1` [Example 9, 4-{[(3R)-4-benzyl-1,3-dimethyl-2-oxo-1,2,3,4-tetrahydroquinoxalin-6-yl]amino}-N-(oxetan-3-ylmethyl)benzamide], the half-maximal inhibitory concentration (IC50) amounted to 249 nM.

In the case of `C[C@@H]1C(=O)N(C)c2ccc(Nc3ccc(C(=O)NC4CC4)cc3)cc2N1Cc1ccccc1` [Example 10, 4-{[(3R)-4-benzyl-1,3-dimethyl-2-oxo-1,2,3,4-tetrahydroquinoxalin-6-yl]amino}-N-cyclopropylbenzamide], the 50% inhibitory concentration (IC50) was 308 nM.

In the case of `C[C@@H]1C(=O)N(C)c2ccc(Nc3ccc(C(=O)NC4CCN(C)CC4)cc3)cc2N1Cc1ccccc1` [Example 11, 4-{[(3R)-4-benzyl-1,3-dimethyl-2-oxo-1,2,3,4-tetrahydroquinoxalin-6-yl]amino}-N-(1-methylpiperidin-4-yl)benzamide], the IC50 is 239 nM.

Take `C[C@@H]1C(=O)N(C)c2ccc(Nc3ccc(C(=O)N4CCOCC4)cc3)cc2N1Cc1ccccc1` [Example 12, (3R)-4-benzyl-1,3-dimethyl-6-{[4-(morpholin-4-ylcarbonyl)phenyl]amino}-3,4-dihydroquinoxalin-2(1H)-one]: the IC50 stood at 156 nM.

Take `C[C@@H]1C(=O)N(C)c2ccc(Nc3ccc(S(=O)(=O)N4CCOCC4)cc3)cc2N1Cc1ccccc1` [Example 13, (3R)-4-benzyl-1,3-dimethyl-6-{[4-(morpholin-4-ylsulphonyl)phenyl]amino}-3,4-dihydroquinoxalin-2(1H)-one]: the IC50 is 168 nM.

As to `C[C@@H]1C(=O)N(C)c2ccc(Nc3ccc(S(=O)(=O)N(C)C)cc3)cc2N1Cc1ccccc1` [Example 14, 4-{[(3R)-4-benzyl-1,3-dimethyl-2-oxo-1,2,3,4-tetrahydroquinoxalin-6-yl]amino}-N,N-dimethylbenzenesulphonamide], the IC50 worked out at 283 nM.

In turn, `C[C@@H]1C(=O)N(C)c2ccc(Nc3ccc(S(=O)(=O)N4CCN(C)CC4)cc3)cc2N1Cc1ccccc1` [Example 15, (3R)-4-benzyl-1,3-dimethyl-6-({4-[(4-methylpiperazin-1-yl)sulphonyl]phenyl}amino)-3,4-dihydroquinoxalin-2(1H)-one] returned an IC50 of 128 nM.

On to `C[C@@H]1C(=O)N(C)c2ccc(Nc3ccc(C(=O)N4CC5(CCS5(=O)=O)C4)cc3)cc2N1Cc1ccccc1` [Example 16, (3R)-4-benzyl-6-({4-[(1,1-dioxido-1-thia-6-azaspiro[3.3]hept-6-yl)carbonyl]phenyl}amino)-1,3-dimethyl-3,4-dihydroquinoxalin-2(1H)-one], for which the IC50 was found to be 257 nM.

`COc1ccc(CN2c3cc(Nc4ccc(C(=O)NC5CCN(C)CC5)cc4)ccc3N(C)C(=O)[C@H]2C)cc1` [Example 17, 4-{[(3R)-4-(4-methoxybenzyl)-1,3-dimethyl-2-oxo-1,2,3,4-tetrahydroquinoxalin-6-yl]amino}-N-(1-methylpiperidin-4-yl)benzamide] displayed an IC50 of 114 nM.

Consider `COc1ccc(CN2c3cc(Nc4ccc(C(=O)N5CCOCC5)cc4)ccc3N(C)C(=O)[C@H]2C)cc1` [Example 18, (3R)-4-(4-methoxybenzyl)-1,3-dimethyl-6-{[4-(morpholin-4-ylcarbonyl)phenyl]amino}-3,4-dihydroquinoxalin-2(1H)-one], for which the IC50 came to 190 nM.

Compound `COc1ccc(CN2c3cc(Nc4ccc(C(=O)NCC5COC5)cc4)ccc3N(C)C(=O)[C@H]2C)cc1` [Example 19, 4-{[(3R)-4-(4-methoxybenzyl)-1,3-dimethyl-2-oxo-1,2,3,4-tetrahydroquinoxalin-6-yl]amino}-N-(oxetan-3-ylmethyl)benzamide] yielded an IC50 of 148 nM.

As to `COc1ccc(CN2c3cc(Nc4ccc(C(=O)N5CC6(COC6)C5)cc4)ccc3N(C)C(=O)[C@H]2C)cc1` [Example 20, (3R)-4-(4-methoxybenzyl)-1,3-dimethyl-6-{[4-(2-oxa-6-azaspiro[3.3]hept-6-ylcarbonyl)phenyl]amino}-3,4-dihydroquinoxalin-2(1H)-one], the IC50 is 105 nM.

`COc1ccc(CN2c3cc(Nc4ccc(C(=O)NCCN5CCN(C)CC5)cc4)ccc3N(C)C(=O)[C@H]2C)cc1` [Example 21, 4-{[(3R)-4-(4-methoxybenzyl)-1,3-dimethyl-2-oxo-1,2,3,4-tetrahydroquinoxalin-6-yl]amino}-N-[2-(4-methylpiperazin-1-yl)ethyl]benzamide] came in with an IC50 of 108 nM.

With `COc1ccc(CN2c3cc(Nc4ccc(C(=O)N5CCN(C(C)C)CC5)cc4)ccc3N(C)C(=O)[C@H]2C)cc1` [Example 22, (3R)-4-(4-methoxybenzyl)-1,3-dimethyl-6-[(4-{[4-(propan-2-yl)piperazin-1-yl]carbonyl}phenyl)amino]-3,4-dihydroquinoxalin-2(1H)-one], the IC50 worked out at 175 nM.

Take `C[C@@H]1C(=O)N(C)c2ccc(Nc3ccc(C(=O)NC4CCN(C)CC4)cc3)cc2N1C1CCCCCC1` [Example 23, 4-{[(3R)-4-cycloheptyl-1,3-dimethyl-2-oxo-1,2,3,4-tetrahydroquinoxalin-6-yl]amino}-N-(1-methylpiperidin-4-yl)benzamide]: the IC50 worked out at 176 nM.
